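Assay format: 96-well plates, 48-hour exposure. At the GI50, growth is halved.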 Active and inactive are the calls of the source. No stated cut-off is given here; in the data, active = GI50 up to about 1.1 µM and inactive = higher.
Assays:
Assay in all cases: NCI tumour cell line growth inhibition, 48 h
[1] = test system: LXFL 529
[2] = test system: DLD-1
[3] = test system: XF498
[4] = test system: DMS-273
[5] = test system: HOP-18
[6] = test system: M19-MEL
[7] = test system: DMS-114
[8] = test system: KM-20L2
[9] = test system: RXF 631

Row | SMILES | GI50 [1] | GI50 [2] | GI50 [3] | GI50 [4] | GI50 [5] | GI50 [6] | GI50 [7] | GI50 [8] | GI50 [9]
1 | Oc1cc(-c2ccc3c(c2)OCO3)nc2cc3c(cc12)OCO3 | 68.4 µM (inactive) | 55.8 µM (inactive) | 31.8 µM (inactive) | 21.3 µM (inactive) | 72.6 µM (inactive) | 20.5 µM (inactive) | – | – | –
2 | NC1=C(Cl)C(=O)c2ccccc2C1=O | 12.6 µM (inactive) | 8.75 µM (inactive) | 11.2 µM (inactive) | 5.82 µM (inactive) | 9.66 µM (inactive) | 0.518 µM (active) | 3.89 µM (inactive) | 9.12 µM (inactive) | –
3 | COc1ccc(C(O)/C(=C/n2ccnc2)c2ccccc2)cc1OC (stereo not drawn) | – | > 100 µM (inactive) | > 100 µM (inactive) | > 100 µM (inactive) | > 100 µM (inactive) | > 100 µM (inactive) | > 100 µM (inactive) | > 100 µM (inactive) | > 100 µM (inactive)
4 | CC1(C)C(=O)/C=C\C(=O)C(C)(C)C(=O)/C=C\C(=O)C(C)(C)C2=CC=C(O2)C(C)(C)C(=O)/C=C\C1=O | 2.4 µM (inactive) | 1.72 µM (inactive) | 1.88 µM (inactive) | 2.94 µM (inactive) | 22.5 µM (inactive) | 5.86 µM (inactive) | 8.26 µM (inactive) | 13.9 µM (inactive) | 7.82 µM (inactive)
5 | Cc1ccc(C(=O)N2CCN(C(=O)c3ccc(C)cc3)c3ccccc32)cc1 | 6.5 µM (inactive) | 4.23 µM (inactive) | 4.93 µM (inactive) | 2.05 µM (inactive) | 17.7 µM (inactive) | 4.39 µM (inactive) | 3.78 µM (inactive) | 3.28 µM (inactive) | –
6 | CCC1(O)C(=O)OCc2c1cc1n(c2=O)Cc2c-1nc1ccccc1c2OC (stereo not drawn) | 0.434 µM (active) | 0.488 µM (active) | – | < 0.01 µM (active) | 0.372 µM (active) | 0.0438 µM (active) | < 0.0117 µM (active) | 0.0512 µM (active) | –
7 | COc1ccc2c(c1)Oc1cc(O)ccc1[C@@H]2c1ccccc1C(=O)NC(C)c1ccccc1 (stereo partly drawn) | 14.2 µM (inactive) | 13.9 µM (inactive) | – | 14.3 µM (inactive) | – | 15.9 µM (inactive) | 12.7 µM (inactive) | 14.9 µM (inactive) | –
8 | Cc1ccc(C(=O)NCCN(C)C)c2nc3ccccc3cc12 | 2.15 µM (inactive) | 1.32 µM (inactive) | 1.38 µM (inactive) | 0.467 µM (active) | 1.92 µM (inactive) | 2.31 µM (inactive) | 2.78 µM (inactive) | 0.661 µM (active) | 0.817 µM (active)
9 | N#C/C(=C1\SCC(=O)N1c1ccccc1)c1nc2ccccc2[nH]1 | > 100 µM (inactive) | > 100 µM (inactive) | > 100 µM (inactive) | > 100 µM (inactive) | – | > 100 µM (inactive) | > 100 µM (inactive) | > 100 µM (inactive) | –
10 | CCN(CC)CC(C(=O)Nc1c(C)cccc1C)/C(C)=N\NC(=O)c1ccncc1 (stereo not drawn) | > 100 µM (inactive) | > 100 µM (inactive) | > 100 µM (inactive) | > 100 µM (inactive) | > 100 µM (inactive) | > 100 µM (inactive) | > 100 µM (inactive) | – | > 100 µM (inactive)
11 | COC(=O)N/N=C(\C(=O)Nc1cccc([N+](=O)[O-])c1)c1nc2ccc([N+](=O)[O-])cc2nc1O | 27.7 µM (inactive) | > 100 µM (inactive) | 0.494 µM (active) | – | > 100 µM (inactive) | 74.3 µM (inactive) | 8.09 µM (inactive) | 13.9 µM (inactive) | –
12 | COP(=O)(OC)C(NC(=O)C(F)(F)F)(c1ccccc1)C(F)(F)F (stereo not drawn) | – | > 100 µM (inactive) | > 100 µM (inactive) | > 100 µM (inactive) | > 100 µM (inactive) | > 100 µM (inactive) | > 100 µM (inactive) | > 100 µM (inactive) | –
13 | O=[N+]([O-])c1cnn(C2=CNc3ccccc3N=C2)c1 | – | > 100 µM (inactive) | > 100 µM (inactive) | > 100 µM (inactive) | > 100 µM (inactive) | > 100 µM (inactive) | – | > 100 µM (inactive) | > 100 µM (inactive)
14 | O=C1CC[C@@H](S(=O)(=O)c2ccccc2)[C@@H](/C=C/c2ccccc2)O1 | > 100 µM (inactive) | – | < 0.01 µM (active) | – | > 100 µM (inactive) | > 100 µM (inactive) | > 100 µM (inactive) | > 100 µM (inactive) | –
15 | Cc1ccc2c(ccc(/C=C\c3cc(C)c4cccnc4c3O)[n+]2C)c1 | 0.3 µM (active) | 0.849 µM (active) | – | 0.352 µM (active) | 1.81 µM (inactive) | – | 0.811 µM (active) | 2.84 µM (inactive) | –
16 | CC(C)(C)CC(C)(C)NCC(O)COc1ccc(C(C)(C)c2ccc(OCC(O)CNC(C)(C)CC(C)(C)C)cc2)cc1 (stereo not drawn) | 0.357 µM (active) | 0.832 µM (active) | 1.64 µM (inactive) | 1.04 µM (active) | – | 1.53 µM (inactive) | 1.76 µM (inactive) | 1.47 µM (inactive) | –
17 | COC(=O)C1=C(C[S+]([O-])c2ccc([N+](=O)[O-])cc2[N+](=O)[O-])C2C=CC1C2 (stereo not drawn) | 22.2 µM (inactive) | 19.1 µM (inactive) | 28.5 µM (inactive) | 20.2 µM (inactive) | 29.4 µM (inactive) | 20.1 µM (inactive) | 23.4 µM (inactive) | 22 µM (inactive) | 17.8 µM (inactive)
18 | N#CC(C#N)=c1ccc(=C2NCC3CCCN23)cc1 (stereo not drawn) | > 100 µM (inactive) | – | – | > 100 µM (inactive) | > 100 µM (inactive) | > 100 µM (inactive) | > 100 µM (inactive) | > 100 µM (inactive) | –
19 | CC(=O)NC1=C(Nc2ccc(C)cc2)C(=O)c2ccccc2C1=O | 23.6 µM (inactive) | 19.7 µM (inactive) | 24.9 µM (inactive) | 16.5 µM (inactive) | 12.2 µM (inactive) | 8.43 µM (inactive) | 14.5 µM (inactive) | 24.1 µM (inactive) | –
20 | CCOC(=O)/C(C)=C(/O)C(=O)OCC | > 100 µM (inactive) | > 100 µM (inactive) | > 100 µM (inactive) | > 100 µM (inactive) | > 100 µM (inactive) | – | > 100 µM (inactive) | – | > 100 µM (inactive)
21 | COC(=O)[C@@]12C3=NO[C@]1(C(=O)OC)C(O[Si](C)(C)C(C)(C)C)C1OC(C)(C)OC1[C@@H]2[C@@H](OCc1ccccc1)CC3 (stereo partly drawn) | 46.3 µM (inactive) | > 100 µM (inactive) | – | 51.4 µM (inactive) | > 100 µM (inactive) | > 100 µM (inactive) | 49.5 µM (inactive) | > 100 µM (inactive) | –
